{
  "source": "ChEMBL document CHEMBL5465560",
  "about": "“Selectivity Literature for EUbOPEN Chemogenomic Library” (2024)",
  "key": {"[1]": {"test_system": "Phosphatidylinositol 4,5-bisphosphate 3-kinase catalytic subunit alpha isoform (Homo sapiens), P42336 [I800L]", "details": "at 10 µM"}, "[2]": {"target": "[Pyruvate dehydrogenase (acetyl-transferring)] kinase isozyme 1, mitochondrial (Homo sapiens, UniProt Q15118)", "experiment": "Selectivity interaction (Kinase panel (Z-LYTE Assay)) EUB0001632a PDK1", "details": "at 10 µM"}, "[3]": {"target": "Epithelial discoidin domain-containing receptor 1 (Homo sapiens) (UniProt Q08345)", "sequence (Q08345 whole entry, the tested form may be a part)": "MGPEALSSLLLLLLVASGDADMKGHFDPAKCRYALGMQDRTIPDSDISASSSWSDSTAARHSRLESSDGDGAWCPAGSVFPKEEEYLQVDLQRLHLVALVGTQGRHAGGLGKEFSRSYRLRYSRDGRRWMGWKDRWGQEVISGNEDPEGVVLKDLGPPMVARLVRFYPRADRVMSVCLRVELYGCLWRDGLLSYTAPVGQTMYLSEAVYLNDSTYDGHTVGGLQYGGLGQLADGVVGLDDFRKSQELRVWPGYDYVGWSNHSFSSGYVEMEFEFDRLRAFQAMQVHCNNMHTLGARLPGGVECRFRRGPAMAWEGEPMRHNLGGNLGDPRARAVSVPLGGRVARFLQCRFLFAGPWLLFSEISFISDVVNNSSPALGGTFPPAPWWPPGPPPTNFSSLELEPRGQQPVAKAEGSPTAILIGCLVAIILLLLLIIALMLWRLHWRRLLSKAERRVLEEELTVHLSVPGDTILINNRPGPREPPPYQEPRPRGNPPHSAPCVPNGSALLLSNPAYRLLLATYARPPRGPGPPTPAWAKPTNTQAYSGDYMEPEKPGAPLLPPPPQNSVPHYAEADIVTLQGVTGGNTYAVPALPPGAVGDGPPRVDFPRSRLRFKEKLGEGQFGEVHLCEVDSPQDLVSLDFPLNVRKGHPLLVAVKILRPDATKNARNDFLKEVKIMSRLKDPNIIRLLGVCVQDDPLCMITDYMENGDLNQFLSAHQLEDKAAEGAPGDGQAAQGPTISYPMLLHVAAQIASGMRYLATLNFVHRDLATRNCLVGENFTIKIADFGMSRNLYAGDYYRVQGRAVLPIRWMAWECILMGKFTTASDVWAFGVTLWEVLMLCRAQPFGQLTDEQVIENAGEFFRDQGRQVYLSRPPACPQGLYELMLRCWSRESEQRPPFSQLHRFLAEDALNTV", "experiment": "Selectivity interaction (KinomeScan (DiscoverX)) EUB0000666a DDR1", "details": "at 10 µM"}, "[4]": {"target": "T1, Serine/threonine-protein kinase Nek1 (Homo sapiens) (UniProt Q96PY6)", "T1 sequence (whole entry)": "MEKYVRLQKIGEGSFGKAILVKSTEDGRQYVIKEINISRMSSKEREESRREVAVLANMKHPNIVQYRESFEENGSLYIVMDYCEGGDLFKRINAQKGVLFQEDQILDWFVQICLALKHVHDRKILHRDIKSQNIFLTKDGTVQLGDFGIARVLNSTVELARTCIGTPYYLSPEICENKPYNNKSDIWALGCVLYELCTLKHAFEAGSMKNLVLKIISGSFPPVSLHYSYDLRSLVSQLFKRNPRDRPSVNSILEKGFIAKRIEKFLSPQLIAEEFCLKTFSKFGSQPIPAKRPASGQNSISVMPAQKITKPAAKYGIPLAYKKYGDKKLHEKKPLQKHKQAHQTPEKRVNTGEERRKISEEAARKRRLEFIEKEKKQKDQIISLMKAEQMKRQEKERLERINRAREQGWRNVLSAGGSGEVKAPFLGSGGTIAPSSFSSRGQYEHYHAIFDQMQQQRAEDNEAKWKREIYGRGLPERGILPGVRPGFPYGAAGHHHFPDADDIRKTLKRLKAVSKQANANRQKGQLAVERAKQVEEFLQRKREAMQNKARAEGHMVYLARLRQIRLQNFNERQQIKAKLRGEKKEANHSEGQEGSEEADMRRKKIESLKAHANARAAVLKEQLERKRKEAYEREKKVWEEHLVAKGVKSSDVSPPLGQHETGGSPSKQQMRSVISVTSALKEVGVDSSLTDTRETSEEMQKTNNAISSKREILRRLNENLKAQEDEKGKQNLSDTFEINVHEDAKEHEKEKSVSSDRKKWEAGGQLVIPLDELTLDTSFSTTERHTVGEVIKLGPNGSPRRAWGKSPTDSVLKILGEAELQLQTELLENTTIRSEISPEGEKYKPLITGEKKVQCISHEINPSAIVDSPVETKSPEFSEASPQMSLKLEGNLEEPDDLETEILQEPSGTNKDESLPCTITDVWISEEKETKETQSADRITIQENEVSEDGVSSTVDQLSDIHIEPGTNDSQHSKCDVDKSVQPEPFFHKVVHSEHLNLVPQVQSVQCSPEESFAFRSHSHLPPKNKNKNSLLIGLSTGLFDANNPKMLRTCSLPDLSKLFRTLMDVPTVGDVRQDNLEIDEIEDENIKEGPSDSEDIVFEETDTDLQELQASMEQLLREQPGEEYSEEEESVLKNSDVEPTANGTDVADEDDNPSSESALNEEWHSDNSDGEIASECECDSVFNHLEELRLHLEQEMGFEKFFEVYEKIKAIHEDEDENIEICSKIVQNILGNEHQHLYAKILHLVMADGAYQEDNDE", "details": "at 10 µM"}, "[5]": {"target": "Tyrosine-protein kinase receptor UFO (Homo sapiens) (UniProt P30530)", "details": "at 10 µM"}, "Misshapen-like kinase 1": {"target": "Misshapen-like kinase 1 (Homo sapiens, UniProt Q8N4C8)", "sequence (Q8N4C8 whole entry, looked up)": "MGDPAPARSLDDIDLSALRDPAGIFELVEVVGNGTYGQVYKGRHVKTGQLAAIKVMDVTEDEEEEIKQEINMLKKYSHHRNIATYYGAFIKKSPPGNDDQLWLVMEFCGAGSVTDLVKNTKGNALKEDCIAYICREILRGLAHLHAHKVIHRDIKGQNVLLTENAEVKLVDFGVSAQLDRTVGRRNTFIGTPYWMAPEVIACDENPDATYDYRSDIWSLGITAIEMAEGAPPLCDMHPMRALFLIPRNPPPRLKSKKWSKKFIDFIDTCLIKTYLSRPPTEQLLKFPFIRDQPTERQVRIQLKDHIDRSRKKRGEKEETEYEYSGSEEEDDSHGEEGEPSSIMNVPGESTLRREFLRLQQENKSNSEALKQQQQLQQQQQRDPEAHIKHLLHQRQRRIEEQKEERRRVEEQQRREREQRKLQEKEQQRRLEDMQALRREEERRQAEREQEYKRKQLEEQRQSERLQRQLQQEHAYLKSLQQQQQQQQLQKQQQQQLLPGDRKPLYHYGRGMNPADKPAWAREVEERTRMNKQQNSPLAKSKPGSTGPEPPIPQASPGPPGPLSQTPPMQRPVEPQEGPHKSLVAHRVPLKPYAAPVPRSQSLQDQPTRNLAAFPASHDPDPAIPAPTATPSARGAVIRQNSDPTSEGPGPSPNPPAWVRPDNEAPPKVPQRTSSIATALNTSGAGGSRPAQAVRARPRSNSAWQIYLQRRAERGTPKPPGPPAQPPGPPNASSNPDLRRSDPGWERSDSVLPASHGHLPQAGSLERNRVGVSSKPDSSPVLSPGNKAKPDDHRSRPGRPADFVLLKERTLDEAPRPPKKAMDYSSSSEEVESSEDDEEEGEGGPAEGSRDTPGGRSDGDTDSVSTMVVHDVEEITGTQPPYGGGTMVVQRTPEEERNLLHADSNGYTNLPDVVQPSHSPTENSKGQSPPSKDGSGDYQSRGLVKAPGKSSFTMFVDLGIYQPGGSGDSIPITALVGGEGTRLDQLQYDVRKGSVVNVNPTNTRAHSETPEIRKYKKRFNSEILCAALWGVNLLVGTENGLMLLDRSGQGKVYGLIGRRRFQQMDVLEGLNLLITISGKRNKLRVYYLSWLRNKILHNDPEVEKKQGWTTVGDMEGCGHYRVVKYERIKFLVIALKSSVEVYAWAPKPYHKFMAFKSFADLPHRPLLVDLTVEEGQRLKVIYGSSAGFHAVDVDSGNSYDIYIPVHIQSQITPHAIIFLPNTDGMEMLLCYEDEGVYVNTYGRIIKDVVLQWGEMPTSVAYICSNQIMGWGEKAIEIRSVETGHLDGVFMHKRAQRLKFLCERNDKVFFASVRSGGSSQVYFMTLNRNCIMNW", "details": "at 10 µM"}, "[6]": {"target": "Mitogen-activated protein kinase kinase kinase kinase 5 (Homo sapiens) (UniProt Q9Y4K4)", "sequence (Q9Y4K4 whole entry, looked up)": "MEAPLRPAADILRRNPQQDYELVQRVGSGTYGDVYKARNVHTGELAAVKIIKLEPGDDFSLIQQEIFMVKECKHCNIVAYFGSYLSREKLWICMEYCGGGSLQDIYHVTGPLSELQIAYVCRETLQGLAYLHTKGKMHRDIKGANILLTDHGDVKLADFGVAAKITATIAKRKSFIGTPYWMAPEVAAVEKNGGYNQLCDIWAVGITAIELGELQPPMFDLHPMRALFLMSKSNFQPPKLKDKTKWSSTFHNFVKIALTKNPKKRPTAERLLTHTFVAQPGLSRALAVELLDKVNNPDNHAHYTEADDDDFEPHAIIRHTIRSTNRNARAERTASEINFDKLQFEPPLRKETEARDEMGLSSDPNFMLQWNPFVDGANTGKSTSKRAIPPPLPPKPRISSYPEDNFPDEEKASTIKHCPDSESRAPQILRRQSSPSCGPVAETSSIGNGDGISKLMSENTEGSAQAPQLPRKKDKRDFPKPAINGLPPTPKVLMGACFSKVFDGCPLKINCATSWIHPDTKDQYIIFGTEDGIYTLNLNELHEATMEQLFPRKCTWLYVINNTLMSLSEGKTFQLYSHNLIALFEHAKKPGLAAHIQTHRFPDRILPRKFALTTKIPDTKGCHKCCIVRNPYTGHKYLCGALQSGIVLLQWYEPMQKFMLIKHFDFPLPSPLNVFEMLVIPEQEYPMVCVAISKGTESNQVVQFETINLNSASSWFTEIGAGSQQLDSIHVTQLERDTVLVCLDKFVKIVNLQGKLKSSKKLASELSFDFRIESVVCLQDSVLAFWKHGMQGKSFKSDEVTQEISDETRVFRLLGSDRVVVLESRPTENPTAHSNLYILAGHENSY", "experiment": "Selectivity interaction (KinomeScan (DiscoverX)) EUB0001550a MAP4K5", "details": "at 1 µM"}, "[7]": {"test_system": "Platelet-derived growth factor receptor alpha (Homo sapiens), P16234 [T674I]", "sequence (P16234 whole entry T674I)": "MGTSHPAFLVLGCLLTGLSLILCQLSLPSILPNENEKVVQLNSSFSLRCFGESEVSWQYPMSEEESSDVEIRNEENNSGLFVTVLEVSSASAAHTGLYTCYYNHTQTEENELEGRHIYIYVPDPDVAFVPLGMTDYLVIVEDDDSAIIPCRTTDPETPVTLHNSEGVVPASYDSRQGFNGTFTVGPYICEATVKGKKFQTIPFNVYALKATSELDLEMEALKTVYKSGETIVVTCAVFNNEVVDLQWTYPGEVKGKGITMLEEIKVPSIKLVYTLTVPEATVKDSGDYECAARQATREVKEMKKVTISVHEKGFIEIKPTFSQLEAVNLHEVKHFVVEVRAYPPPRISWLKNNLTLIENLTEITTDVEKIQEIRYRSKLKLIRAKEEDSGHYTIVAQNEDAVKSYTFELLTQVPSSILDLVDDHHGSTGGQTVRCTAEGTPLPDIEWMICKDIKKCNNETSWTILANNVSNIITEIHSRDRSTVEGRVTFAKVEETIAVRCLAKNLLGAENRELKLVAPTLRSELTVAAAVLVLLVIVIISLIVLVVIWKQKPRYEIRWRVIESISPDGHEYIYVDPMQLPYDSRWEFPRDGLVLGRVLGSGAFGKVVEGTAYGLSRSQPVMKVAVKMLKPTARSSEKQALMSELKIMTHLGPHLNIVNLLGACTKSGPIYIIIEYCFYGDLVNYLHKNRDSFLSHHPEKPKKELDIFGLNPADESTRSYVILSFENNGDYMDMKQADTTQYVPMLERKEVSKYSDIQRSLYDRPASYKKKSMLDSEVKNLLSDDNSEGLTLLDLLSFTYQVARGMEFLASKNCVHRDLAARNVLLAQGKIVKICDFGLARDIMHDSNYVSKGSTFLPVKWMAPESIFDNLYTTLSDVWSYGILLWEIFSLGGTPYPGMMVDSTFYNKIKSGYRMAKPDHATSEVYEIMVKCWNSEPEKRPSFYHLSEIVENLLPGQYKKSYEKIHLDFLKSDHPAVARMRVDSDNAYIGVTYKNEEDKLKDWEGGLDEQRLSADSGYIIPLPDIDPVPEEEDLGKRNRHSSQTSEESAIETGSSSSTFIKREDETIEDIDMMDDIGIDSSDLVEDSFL", "experiment": "(§1) Selectivity interaction (ProQinase) EUB0000171b PDGFRA"}, "[8]": {"target": "Platelet-derived growth factor receptor alpha (Homo sapiens, UniProt P16234)", "sequence (P16234 whole entry)": "as the sequence (P16234 whole entry T674I) above, with I674T counted along it", "experiment": "as §1"}, "[9]": {"test_system": "Platelet-derived growth factor receptor alpha (Homo sapiens), P16234 [D842V]", "sequence (P16234 whole entry D842V)": "as the sequence (P16234 whole entry T674I) above, with I674T, D842V counted along it", "experiment": "as §1"}, "[10]": {"test_system": "Platelet-derived growth factor receptor alpha (Homo sapiens), P16234 [V561D]", "sequence (P16234 whole entry V561D)": "as the sequence (P16234 whole entry T674I) above, with V561D, I674T counted along it", "experiment": "as §1"}, "[11]": {"target": "Cyclin-dependent kinase 3 (Homo sapiens) (UniProt Q00526)", "sequence (Q00526 whole entry, looked up)": "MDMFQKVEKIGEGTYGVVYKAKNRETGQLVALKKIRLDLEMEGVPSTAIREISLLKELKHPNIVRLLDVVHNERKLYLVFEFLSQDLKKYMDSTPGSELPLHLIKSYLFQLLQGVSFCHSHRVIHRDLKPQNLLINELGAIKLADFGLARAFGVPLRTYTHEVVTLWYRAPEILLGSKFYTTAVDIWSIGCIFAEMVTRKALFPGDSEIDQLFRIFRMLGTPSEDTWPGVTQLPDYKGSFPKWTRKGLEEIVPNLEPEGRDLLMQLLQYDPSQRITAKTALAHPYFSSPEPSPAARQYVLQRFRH", "experiment": "Selectivity interaction (KinomeScan (DiscoverX)) EUB0000607a CDK3", "details": "at 10 µM"}, "[12]": {"target": "T2, Serine/threonine-protein kinase Nek9 (Homo sapiens) (UniProt Q8TD19)", "T2 sequence (whole entry)": "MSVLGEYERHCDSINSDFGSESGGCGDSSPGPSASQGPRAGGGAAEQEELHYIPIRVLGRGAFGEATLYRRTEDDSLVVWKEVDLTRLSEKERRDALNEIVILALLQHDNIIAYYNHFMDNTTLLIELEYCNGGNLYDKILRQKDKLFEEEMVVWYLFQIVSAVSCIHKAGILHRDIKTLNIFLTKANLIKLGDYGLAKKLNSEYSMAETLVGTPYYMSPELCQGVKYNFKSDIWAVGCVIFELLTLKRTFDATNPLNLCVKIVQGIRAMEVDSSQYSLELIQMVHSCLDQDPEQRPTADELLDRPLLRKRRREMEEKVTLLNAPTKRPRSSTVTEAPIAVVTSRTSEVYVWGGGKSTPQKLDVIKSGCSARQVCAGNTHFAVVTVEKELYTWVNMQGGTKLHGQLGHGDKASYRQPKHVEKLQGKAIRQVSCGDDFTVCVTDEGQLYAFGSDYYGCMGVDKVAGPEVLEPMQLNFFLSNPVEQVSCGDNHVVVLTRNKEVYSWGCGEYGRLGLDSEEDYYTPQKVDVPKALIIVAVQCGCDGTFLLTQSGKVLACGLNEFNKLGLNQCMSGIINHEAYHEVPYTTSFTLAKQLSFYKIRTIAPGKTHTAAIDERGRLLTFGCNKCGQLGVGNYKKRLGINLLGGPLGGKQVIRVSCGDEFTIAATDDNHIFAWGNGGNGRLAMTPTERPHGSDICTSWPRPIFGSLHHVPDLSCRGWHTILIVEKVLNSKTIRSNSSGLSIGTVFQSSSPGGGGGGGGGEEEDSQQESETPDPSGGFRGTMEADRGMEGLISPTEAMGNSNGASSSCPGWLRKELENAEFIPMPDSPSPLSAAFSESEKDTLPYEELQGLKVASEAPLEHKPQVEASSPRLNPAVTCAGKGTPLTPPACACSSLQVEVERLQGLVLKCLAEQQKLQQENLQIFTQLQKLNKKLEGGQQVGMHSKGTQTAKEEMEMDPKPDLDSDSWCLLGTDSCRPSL", "experiment": "Selectivity interaction (ActivX KiNativ screen (kinase selectivity in THP-1 cell lysates)) EUB0000639a NEK9", "type": "subcellular", "details": "lysate, at 0.2 µM"}},
  "data": [
    {"smiles": "COCC(=O)NC/C=C/c1ccc2ncnc(Nc3ccc(Oc4ccc(C)nc4)c(C)c3)c2c1", "note": "[CP-724714]", "values": [
      {"measurement": "% of control", "setting": "[1]", "result": 100, "unit": "%"}
    ]},
    {"smiles": "Cn1cc(-n2cnc3c(NCc4nc5cc(Cl)c(Cl)cc5[nH]4)nc(N4CCOCC4)nc32)cn1", "values": [
      {"measurement": "% of control", "setting": "[2]", "result": 9.23, "unit": "%"}
    ]},
    {"smiles": "O=C(NOC[C@H](O)CO)c1ccc(F)c(F)c1Nc1ccc(I)cc1F", "values": [
      {"measurement": "% of control", "setting": "[3]", "result": 50, "unit": "%"}
    ]},
    {"smiles": "Cc1cc([C@@H](C)Nc2ccccc2C(=O)O)c2nc(N3CCOCC3)cc(=O)n2c1", "note": "[AZD-6482]", "values": [
      {"measurement": "% of control", "setting": "[4]", "result": 85, "unit": "%"},
      {"measurement": "% of control", "setting": "[5]", "result": 86, "unit": "%"},
      {"measurement": "% of control", "setting": "Misshapen-like kinase 1", "result": 100, "unit": "%"}
    ]},
    {"smiles": "CN(C)CC#Cc1ccc2[nH]c3c(c2c1)-c1nc(N)ncc1CCC3", "values": [
      {"measurement": "% of control", "setting": "[6]", "result": 96, "unit": "%"}
    ]},
    {"smiles": "C=CC(=O)Nc1cccc(C(=O)Nc2ccc(Nc3cc(-c4[nH]c(SC)nc4C)ccn3)cc2)c1", "values": [
      {"measurement": "% of control", "setting": "[7]; at 1 µM", "result": 96, "unit": "%"},
      {"measurement": "% of control", "setting": "[7]; at 5 µM", "result": 84, "unit": "%"},
      {"measurement": "% of control", "setting": "[8]; at 1 µM", "result": 97, "unit": "%"},
      {"measurement": "% of control", "setting": "[8]; at 5 µM", "result": 72, "unit": "%"},
      {"measurement": "% of control", "setting": "[9]; at 1 µM", "result": 68, "unit": "%"},
      {"measurement": "% of control", "setting": "[9]; at 5 µM", "result": 41, "unit": "%"},
      {"measurement": "% of control", "setting": "[10]; at 1 µM", "result": 91, "unit": "%"},
      {"measurement": "% of control", "setting": "[10]; at 5 µM", "result": 68, "unit": "%"}
    ]},
    {"smiles": "CNC(=O)Nc1ccc(-c2nc(N3CC4CCC(C3)O4)c3cnn(C4CCC5(CC4)OCCO5)c3n2)cc1", "values": [
      {"measurement": "% of control", "setting": "[11]", "result": 99, "unit": "%"}
    ]},
    {"smiles": "CC[C@@H]1[C@H](F)C(=O)N[C@@H]1COc1nccc2cc(C(N)=O)c(OC)cc12", "note": "[ZIMLOVISERTIB]", "values": [
      {"measurement": "% of inhibition", "setting": "[12]", "result": 8.3, "unit": "%"}
    ]}
  ]
}
